Experimental data from patent US11259522B2, “Control of resistant pests” (priority 2017, dated 2022).
Converted amounts (≈) assume the structure as drawn. “And” between values parts separate entries of the source, which are not always exact repeats. Identical values can stand only once. Like-named read-outs stand apart in the source and are kept apart here.

Experiments:
[1] = system: Rhyzopertha dominica susceptible strain QRD14; assay: Grain protectant bioassay on treated wheat, susceptible lesser grain borer; format: in vivo; conditions: for 14 day Adult Mortality No. dead/total / F1 Progeny count No. dead/total: Example 8, QQRD14, replicates A, B, C; for Progeny reduction (%): vs untreated control
Source text: The experiment of Example 5 was repeated using a laboratory reared susceptible strain QQRD14 of R. dominica and different concentrations of flavesone to determine efficacy.

[2] = system: Halotydeus destructor susceptible population; assay: Coated plastic vial bioassay, redlegged earth mite, susceptible population; format: in vivo; conditions: for mortality at 300 µg/mL: 300 mg a.i./L
Experimental: The efficacy of flavesone against H. destructor was assessed using the glass vial technique developed by Hoffmann et al. (1997, Exp. Appl. Acarol., 21:151-162), adapted for plastic vials. A susceptible population of mites was collected from capeweed (Arctotheca calendula) at a Victorian site (37° 40′33″S, 145° 07′ 45″E) that had no known history of insecticide application. Following collection, samples were stored in small plastic containers with leaf material and paper towel to absorb excess moisture. Containers were kept at 4° C. prior to testing.
The test compositions included 0.1% Tween 20 non-ionic surfactant to aid the spread of insecticides when coating plastic vials. This concentration of Tween 20 has been previously shown to have no toxic effect on H. destructor. For each insecticide concentration tested, 3, 10, 30, 100, 300, 1000, 3000 and 10000 mg a.i./L (ppm), approximately 10 mL of solution was poured into a 15 mL plastic vial and swirled to ensure a complete coating, with excess liquid removed. Eight vials were coated per concentration and were left to dry overnight. Control vials were treated in the same way but with water used in place of test composition.
Eight susceptible H. destructor mites were then placed into each vial along with a leaf of common vetch (Vicia sativa). The leaf was added to provide food and increase humidity. Vials were then sealed with a lid and placed at 18° C. After 4, 6, 8 and 24 hours of exposure, the mites were scored as alive (moving freely), incapacitated (inhibited movement), or dead (no movement over a 5 second period). […]
The data produced in the assays were assessed for concentrations that caused 50, 90 and 99% mortality (lethal concentration, LC), together with 95% confidence intervals (CIs) and were estimated from observations of mortality after 24 hours exposure using a binomial logistic regression (Robertson & Preisler, 1992, Pesticide Bioassays with Arthropods. CRC: Boca Raton; Venables & Ripley, 2002, Modern Applied Statistics with S. Springer: New York). Population differences were tested by comparing the change in model deviance with and without the population factor (different regression intercepts for each population). Differences in regression slopes between populations were tested by comparing the change in model deviance with and without the population×dose interaction term. The resistance ratio of the insecticide-resistant population was estimated as the ratio of its LC50 to that of the susceptible population. All analyses were performed using R 3.3. (R Core Team 2017, R: A language and environment for statistical computing. R Foundation for Statistical Computing, Vienna, Austria. http://www.R-project.org).

[3] = system: M. persicae (green peach aphid) population resistant to carbamates and synthetic pyrethroids; assay: Leaf dip bioassay, green peach aphid, resistant population; format: in vivo, Myzus persicae; conditions: 96 hours exposure; for LC50: Myzus persicae, foliar
Experimental: Each colony was maintained separately on bok choi plants ([…]) within an exclusion cage in a constant temperature room at 24° C. with a photoperiod of 16:8 LD.
Laboratory bioassays were used to determine the efficacy of flavesone against M. persicae following the leaf dip method described in Moores et al. (1994, Pesticide Biochemistry and Physiology, 49, 114-120). A pilot study was first conducted which confirmed that the leaf dip method was appropriate to elicit a clear dose response for Flavocide 500EW against M. persicae, and to determine the appropriate rate range and timing of mortality assessments (scored at 24, 48, 72 & 96 hours) (data not shown).
Bioassays were then conducted to assess the efficacy of flavesone against a susceptible and resistant population of M. persicae, and to calculate LC values. The efficacy of a conventional insecticide, pirimicarb, was tested for comparison. Nine concentrations of flavesone ranging from 1×10^−3 to 10 times the proposed field rate (Table 15), and six concentrations of pirimicarb were serially diluted and tested, along with a water control, against the susceptible and resistant aphid populations. Leaf discs (25 mm diameter) cut from bok choi leaves were submerged for 1 second in the insecticide solutions, or in the water control, and placed adaxial side up on 10 g/L agar in 35 mm petri dishes. Six replicate leaf discs were prepared per treatment. Once leaves were air-dry, eight M. persicae nymphs were transferred to each insecticide-dipped leaf disc using a fine-haired paintbrush.
After aphid introduction, each petri dish was inverted onto a lid containing a 25 mm diameter filter paper to control humidity. All petri dishes were then placed into an incubator held at 18° C.±2° C. with a photoperiod of 16:8 LD cycle. At 48 & 96 hours, aphids were scored as alive (vibrant and moving freely), dead (not moving over a 5 second period), or incapacitated (inhibited movement).
Dose-response curves were generated by plotting percentage mortality against log concentration. Mortality data was analysed using a logistic regression model with random effects. Logistic regression is suited for the analysis of binary response data (i.e. dead/alive) with the random effect component of the model controlling for the non-independence of mortality scores within replicates. […] Population differences were tested by comparing the change in model deviance with and without the population factor (different regression intercepts for each population). Differences in regression slopes between populations were tested by comparing the change in model deviance with and without the population×dose interaction term.

[4] = system: Tribolium castaneum strain QTC279 (resistant to malathion and bioresmethrin); assay: Grain protectant bioassay on treated wheat, T. castaneum resistant; format: in vivo; conditions: for Progeny reduction (%): vs untreated control
[5] = system: Cryptolestes ferrugineus susceptible strain QCF31; assay: Grain protectant bioassay on treated wheat, C. ferrugineus susceptible; format: in vivo; conditions: for Progeny reduction (%): vs untreated control
[6] = Susceptible population, 24 hours exposure

CC(C)C(=O)C1C(=O)C(C)(C)C(=O)C(C)(C)C1=O [Flavesone, 1-isobutyroyl-3,3,5,5-tetramethylcyclohexane-2,4,6-trione]
14 day Adult Mortality No. dead/total ([1]; 5 ppm on wheat): 0/50 | F1 Progeny count No. dead/total ([1]; 5 ppm on wheat): 4/930 and 4/999 and 1/866 | 14 day Adult Mortality No. dead/total ([1]; 10 ppm on wheat): 6/50 (2×) and 8/50 | F1 Progeny count No. dead/total ([1]; 10 ppm on wheat): 3/446 and 0/444 and 3/487 | 14 day Adult Mortality No. dead/total ([1]; 25 ppm on wheat): 50/50 | F1 Progeny count No. dead/total ([1]; 25 ppm on wheat): 0/0 | 14 day Adult Mortality No. dead/total ([1]; 50 ppm on wheat): 50/50 | F1 Progeny count No. dead/total ([1]; 50 ppm on wheat): 0/0 | 14 day Adult Mortality No. dead/total ([1]; 100 ppm on wheat): 50/50 | F1 Progeny count No. dead/total ([1]; 100 ppm on wheat): 0/0 | Live adult progeny ([1]; QRD14, 25 mg/kg, mean ± SE): 0.0 ± 0.0 | Progeny reduction (%) ([1]; QRD14, 25 mg/kg): 100% | Live adult progeny ([1]; QRD14, 60 mg/kg, mean ± SE): 0.0 ± 0.0 | Progeny reduction (%) ([1]; QRD14, 60 mg/kg): 100% | mortality at 25 mg/kg ([1]; Rhyzopertha dominica, 336 h, QRD14, 25 mg/kg, 2 weeks, mean ± SE, read-out: Adult mortality (%)): 98 ± 1.2% | mortality at 60 mg/kg ([1]; Rhyzopertha dominica, 336 h, QRD14, 60 mg/kg, 2 weeks, mean ± SE, read-out: Adult mortality (%)): 100% | mortality ([2]; Example 9, all application rates above 300 mg a.i./L, by 4 hours exposure): 100% | mortality at 300 µg/mL ([2]; Halotydeus destructor, Example 9, 4 hours of exposure, read-out: mortality (average)): 55% | mortality at 300 µg/mL ([2]; Halotydeus destructor, Example 9, by 8 hours of exposure, read-out: mortality): 100% | LC50 ([2]; Halotydeus destructor, Susceptible population, 24 hours exposure, read-out: LC50 (mg a.i./L)): 40.6 µg/mL (≈ 0.161 mM) | LC90 (mg a.i./L) [2, 6]: 142.55 mg a.i./L | LC99 (mg a.i./L) [2, 6]: 561.35 mg a.i./L | LC50 ([3]; Resistant population, read-out: LC50 (mg a.i./L)): 3150 µg/mL (≈ 12.5 mM) | LC50 ([3]; susceptible and resistant populations, read-out: LC50): 2730 to 3150 µg/mL (≈ 10.8 to 12.5 mM) | LC90 (mg a.i./L) ([3]; Resistant population): 7,929 mg a.i./L | LC99 (mg a.i./L) ([3]; Resistant population): 21,708 mg a.i./L | Live adult progeny ([4]; 25 mg/kg, mean ± SE): 265.3 ± 27.7 | Progeny reduction (%) ([4]; 25 mg/kg): 17.4% | Live adult progeny ([4]; 60 mg/kg, mean ± SE): 204.3 ± 27.8 | Progeny reduction (%) ([4]; 60 mg/kg): 36.4% | Progeny reduction (%) ([4]; 60 mg/kg, listed as flavesone): 36% | mortality at 25 mg/kg ([4]; Tribolium castaneum, 336 h, 25 mg/kg, 2 weeks, mean ± SE, read-out: Adult mortality (%)): 0% | mortality at 60 mg/kg ([4]; Tribolium castaneum, 336 h, 60 mg/kg, 2 weeks, mean ± SE, read-out: Adult mortality (%)): 0% | Live adult progeny ([5]; 25 mg/kg, mean ± SE): 72.0 ± 20.3 | Progeny reduction (%) ([5]; 25 mg/kg): 76.5% | Progeny reduction (%) ([5]; 25 mg/kg, listed as flavesone): ~75% | Live adult progeny ([5]; 60 mg/kg, mean ± SE): 0.0 ± 0.0 | Progeny reduction (%) ([5]; 60 mg/kg): 100% | mortality at 25 mg/kg ([5]; Cryptolestes ferrugineus, 336 h, 25 mg/kg, 2 weeks, mean ± SE, read-out: Adult mortality (%)): 27.5 ± 17.5% | mortality at 60 mg/kg ([5]; Cryptolestes ferrugineus, 336 h, 60 mg/kg, 2 weeks, mean ± SE, read-out: Adult mortality (%)): 90%
